From US8034561B2, “HIN-1, a tumor suppressor gene” (Dana-Farber Cancer Institute, Inc., priority 2001, dated 2011)

Key:
[1] = system: primary human bronchial epithelial cells; assay: Retinoic acid-induced mucinous differentiation, RT-PCR of hHIN-1, MUC2 and Tgase I mRNA; type: cell-based; conditions: 1 mM all-trans retinoic acid, 1 to 9 days
Procedure: Primary cultures of human bronchial epithelial cells were purchased from Clonetics (Walkersville, Md.) and were cultured in the presence or absence of 1 mM all-trans retinoic acid essentially as previously described [Koo et al. (1999) Am. J. Respir. Cell Mol. Biol. 20:43-52].
To test this hypothesis, the expression of hHIN-1 mRNA by RT-PCR during retinoic acid-induced mucinous differentiation of primary human bronchial epithelial cells was analyzed (FIG. 13). Primary human bronchial epithelial cells underwent squamous epithelial differentiation and expressed squamous cell markers such as transglutaminase I (Tgase I) in the absence of all-trans retinoic acid (FIG. 13). […] J. Respir. Cell Mol. Biol. 20:43-52]. […] Such expression kinetics are consistent with a role for HIN-1 as an inducer of this process.

hHIN-1 promoter region = assay: Extent of hHIN-1 promoter methylation by sequence analysis of bisulfite treated genomic DNA; type: cell-based, human; conditions: ZR-75-1 cells treated with 25 μM 5aza-C vs not treated, bisulfite sequencing
From the text: hHIN-1 methylation, loss of heterozygocity and mutation analysis. Searching the draft of the human genome sequence with the hHIN-1 cDNA sequence identified a genomic clone (CTB-36B8) containing the entire hHIN-1 gene, the proximal promoter region of which contained an apparent CpG island. To determine the location of methylated cytosines, genomic DNA was extracted from the cells, bisulfite treated and purified as previously described [Herman et al. (1998) Proc. Natl. Acad. Sci. USA 95:6870-6875]. PCR amplification was performed using the following primers designed to amplify the coding strand (nucleotides −345 to +72) of bisulfite treated DNA: forward primer-5′-[…]-3′ (SEQ ID NO:9) and reverse primer-5′-[…]-3′ (SEQ ID NO:10). […] PCR amplifications were performed as described above; PCR fragments were analyzed on 3% agarose gels.
(§1) To test for the consequence of promoter methylation on hHIN-1 expression, the effect of a DNA methyltransferase inhibitor (5-aza-2′-deoxycytidine; “5aza-C”) on hHIN-1 mRNA levels was analyzed. […] The expression of hHIN-1 mRNA was determined by RT-PCR analysis, while the extent of promoter methylation was evaluated by sequence analysis of bisulfite treated genomic DNA.

[2] = system: breast cancer cell lines with no detectable expression of hHIN-1; assay: Effect of DNA methyltransferase inhibitor on hHIN-1 mRNA levels (RT-PCR); type: cell-based, human; conditions: six breast cancer cell lines, 25 μM 5aza-C for three to ten days
From the text: Cell lines and tissue. BT-20, BT-474, BT-549, Hs578T, MCF-7, MDA-MB-231, MDA-MB-468, MDA-MB-435S, SK-BR-3, T47D, UACC-812, UACC-893, and ZR-75-1 breast cancer cell lines were obtained from the American Type Culture Collection (ATCC; Manassas, Va.). SUM-44, SUM-52, SUM-102, SUM149, SUM-159, SUM-185, SUM-190, SUM-225, SUM-229, and SUM-1315 cell lines were a generous gift of Dr. Steve Ethier (University of Michigan Medical Center). The HCC1937 BRCA1 minus cell line was obtained from Dr. Gail Tomlinson (University of Texas Southwestern Medical Center). The 21MT1, 21MT2, 21NT, and 21PT cell lines were obtained from Dr. Arthur Pardee (Dana-Farber Cancer Institute). Cells were grown in media recommended by the ATCC or by the establishing investigators. However, 48 hours prior to RNA extraction, all cell lines were switched to DMEM/F12 medium supplemented with 5% FBS in order to minimize gene expression differences due to culture conditions. […]
as §1

BT549 cells = assay: Colony assay after transfection with pCEP4 expression constructs; type: cell-based, human; conditions: stable transfectants selected with hygromycin for 2 weeks, crystal violet staining, compared to control pCEP4
From the text: Generation of hHIN-1 mammalian expression constructs and recombinant adenoviruses. […] For the generation of a recombinant adenovirus the hHIN-1 cDNA was PCR amplified and subcloned into the Kpn I-Xho I site of the pAd-Track-CMV adenoviral vector followed by recombination and adenovirus generation using the Ad-Easy™(Quantum Biotechnologies, Montreal, Canada) system [He et al. (1998) Proc. Natl. Acad. Sci. USA 95:2509-2514].
Colony assays, cell cycle analysis and western blot analysis. For colony assay experiments, cells in 100 mm plates were transfected with a mix of 42 μl of FuGene6 (Roche) and 21 μg of the indicated plasmid. 24 hours after transfection, 84% of the cells were plated into 2 T25 tissue culture flasks in medium without a selection drug. Twenty-four hours later the medium was replaced with selection medium containing hygromycin. Colonies were allowed to grow for 2 weeks after which they were visualized by crystal violet staining.
In order to investigate the effect of constitutive hHIN-1 expression on mammary cell growth, a mammalian expression construct containing hHIN-1 polypeptide encoding cDNA (pCEP4-HIN-1) was transfected into various breast cancer cell lines. Stable transfectants were selected in the presence of hygromycin for 2 weeks.

CC1=C(/C=C/C(C)=C/C=C/C(C)=C/C(=O)O)C(C)(C)CCC1 [retinoic acid, all-trans retinoic acid]
expression of hHIN-1 mRNA ([1]; RT-PCR, following retinoic acid treatment): correlated with the loss of a squamous marker (Tgase I) and preceded the induction of a marker for mucinous differentiation (MUC2)
differentiation phenotype (MUC2 expression) ([1]; air-interface culture): differentiated into mucinous cells

Nc1ncn([C@H]2C[C@H](O)[C@@H](CO)O2)c(=O)n1 [5aza-C, 5-aza-2′-deoxycytidine]
extent of hHIN-1 promoter methylation (hHIN-1 promoter region): decrease in the extent of promoter methylation
expression of hHIN-1 mRNA [2]: re-expression of hHIN-1 mRNA in all six cell lines

B1: hHIN-1: hHIN-1 polypeptide (SEQ ID NO:1), 104 amino acids, expressed from the pCEP4-HIN-1 mammalian expression construct (protein, listed as Homo sapiens)
chain: MKLAALLGLCVALSCSSARAFLVGSAKPVAQPVAALESAAEAGAGTLANPLGTLNPLKLLLSSLGIPVNHLIEGSQKCVAELGPQAVGAVKALKALLGALTVFG
colony numbers / cell growth (BT549 cells): dramatic decrease in colony numbers
